These results are taken from patent US20260274799A1, “HETEROCYCLIC DERIVATIVES, COMPOSITIONS AND USES THEREOF” (DANATLAS PHARMACEUTICALS CO., LTD., priority 2023, published 2026).

The experiment deals with T1, PPARγ-LBD (UniProt ID: P37231-2) (Homo sapiens, UniProt P37231).
T1 construct: PPARγ-LBD (UniProt ID: P37231-2) was expressed and purified in insect system; made in house
T1 sequence (P37231 238-503 limits assumed): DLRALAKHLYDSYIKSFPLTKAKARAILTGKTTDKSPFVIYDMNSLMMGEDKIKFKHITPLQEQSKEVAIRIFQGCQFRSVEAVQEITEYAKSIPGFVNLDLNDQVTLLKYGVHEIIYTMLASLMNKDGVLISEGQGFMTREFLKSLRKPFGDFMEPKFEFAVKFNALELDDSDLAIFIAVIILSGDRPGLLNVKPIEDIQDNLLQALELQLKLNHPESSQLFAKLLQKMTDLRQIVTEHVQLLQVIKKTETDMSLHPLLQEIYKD
Put plainly: PPARγ-SMRT recruitment assay (TR-FRET). The format is biochemical. The conditions noted are these: for EC50: TR-FRET, SMRT peptide recruitment to PPARγ-LBD, 120 min pre-incubation. The protocol:
PPARγ TR-FRET assay was initiated to evaluate potential activatory effect of the compounds of the present disclosure for SMRT recruitment to PPARγ protein. PPARγ-LBD (UniProt ID: P37231-2) was expressed and purified in insect system and stored at −80° C. in aliquots. Biotinylated SMRT peptide was synthesized (Biotin-[…]). 5 μL protein solution mixture consisting of 10 nM PPARγ-LBD and 2 nM Anti-His Eu (Cisbio, 61HISKLA) in assay buffer (25 mM HEPES pH7.4, 25 mM KCl, 1 mM EDTA, 0.01% BSA, 0.01% Tween-20, 1 mM TCEP) was added to 384-well plates containing duplicate 10-point dose response titration of compounds in 5 μL assay buffer (1% f.c. DMSO(v/v)). After 120 min pre-incubation at room temperature, 5 μL peptide solution mixture consisting of 50 nM Biotin-SMRT peptide and 25 nM Streptavidin-XL665 (Cisbio, 610SAXLA) added to plates. Plates were incubated for 60 min. and read in CLARIOstar Plus plate reader with Ex/Em 620 nm/[…]. Average TR-FRET ratio of high control (Wells with 10 uM control compound) was calculated as High Control (HC). Average TR-FRET ratio of low control (Wells with 1% DMSO) was calculated as Low control (LC). For one compound, top % is the max value of % Activation.
EC50 values were determined by fitting the data to the standard 4 parameters with Hill Slope using GraphPad Prism software. […] ND: No Determine.

Structures are written as SMILES.

Turning to `CS(=O)(=O)c1ccc(C#N)cc1-c1cc(=O)c2c(F)c(/C=C/c3ccccc3)c(F)cc2[nH]1` [Example 53, (E)-3-(5,7-Difluoro-4-oxo-6-styryl-1,4-dihydroquinolin-2-yl)-4-(methylsulfonyl)benzonitrile], the EC50 (in general, the concentration at which the effect is half-maximal) is below 100 nM. Also, the Emax (1 h, max value of % Activation, high control 10 uM control compound, low control 1% DMSO, read-out: Top %) was 650%.

`Cn1nnnc1Sc1ccc(C#N)cc1-c1cc(=O)c2c(F)cc(F)cc2[nH]1` [Example 54, 3-(5,7-Difluoro-4-oxo-1,4-dihydroquinolin-2-yl)-4-((1-methyl-1H-tetrazol-5-yl)thio)benzonitrile]: the EC50 was above 1000 nM.

Consider `COc1cc(-c2cc(C#N)ccc2S(C)(=O)=O)nc2cc(F)c(C#CC(C)(C)F)c(F)c12` [Example 55, 3-(5,7-Difluoro-6-(3-fluoro-3-methylbut-1-yn-1-yl)-4-methoxyquinolin-2-yl)-4-(methylsulfonyl)benzonitrile], for which the half-maximal effective concentration (EC50) was above 1000 nM.

`Cc1ccc(S(C)(=O)=O)c(-c2cc(=O)c3c(F)c(CCC4CCOCC4)c(F)cc3[nH]2)c1` [Example 56, 5,7-Difluoro-2-(5-methyl-2-(methylsulfonyl)phenyl)-6-(2-(tetrahydro-2H-pyran-4-yl)ethyl)quinolin-4(1H)-one] displayed an EC50 of 100 to 1000 nM.
